This note sets out measurements from patent publication US12202835B2, “Substituted aromatic ring-linked dioxinoquinazolines and dioxinoquinolines as kinase inhibitors” (BEIJING SCITECH-MQ PHARMACEUTICALS LIMITED, priority 2018, dated 2025).

What is called IC50 is the concentration that gives 50% inhibition.

In one assay the target is TRKA kinase (Homo sapiens (Human), UniProt P04629). Briefly: Assay of small molecular compounds for inhibiting the activity of TRKA kinase (LANCE TR-FRET). Type of assay: biochemical. Summed up: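 TRKA (supplied as 2 nM 2× solution) was pre-reacted with compounds for 5 min at room temperature before a 4× ULight-TK peptide/ATP mix (400 nM/40 μM) started the 60-min dark reaction at 1% DMSO. After stop and 60-min detection, TR-FRET was read.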
(In general: TR-FRET usually uses a lanthanide donor and a delayed reading to cut background.)

A further assay concerns the target c-MET kinase (Homo sapiens (Human), UniProt P08581). Kind of assay: Assay of small molecular compounds for inhibiting the activity of c-MET kinase (LANCE TR-FRET). As to conditions: read-out: CMET IC50. Type of assay: biochemical. The procedure, abridged:
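Eleven final concentrations from 2500 nM down to 0.042 nM, in 4% DMSO, were tested against human c-MET (2× stock 2 nM), with compound and enzyme premixed for 5 min. The phosphorylation reaction used 4× stock of 400 nM ULight-JAK-1 peptide and 40 μM ATP for 60 min at room temperature, then stop and detection steps. TR-FRET percent inhibition against positive and negative controls gave the IC50.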

In a further assay the test system is Ba/F3 LMNA-NTRK1 cells. Briefly: Assay for inhibiting the proliferation of Ba/F3 LMNA-NTRK1 cells (CCK-8). Format: cell-based. As to conditions: Mus musculus, BaF3. As for the experimental part: In particular, the method of the assay of small molecular compounds for inhibiting cell proliferation is as follows: • 1. Cells cultured to a logarithmic growth phase (adherent cells need to be digested with trypsin and neutralized) were taken, pipetted evenly, transferred to a 15 mL centrifuge tube, and centrifuged at 1000 rpm at room temperature for 4 minutes; • 2. The supernatant was discarded; 5 mL of complete medium was added and pipetted evenly; 10 μL of cell suspension was taken out, mixed well with 10 μL of 0.4% trypan blue, and counted under a cell counter; the proportion of living cells was ensured to be above 90%; • 3. 80 μL of cell suspension per well was seeded into a 96-well plate according to the conditions shown in the attached table, and cultured overnight; in the outer 36 wells of the 96-well plate, no cells were added but only sterile water was added; only the inner 60 wells were used for cell assay and control; • 4. […] 20 μL of the corresponding compounds with different concentration gradients were added to each well of assay wells of the 96-well plate; 20 μL of complete medium was added to positive and negative control wells and shaken well; and the final concentration of DMSO in each well was 0.25%; • 6. After 72 hours of incubation, 10 μL of CCK-8 reagent was added to each well and further incubated at 37° C. for 1-2 hours; and the OD value was read at 450 nm; • 7. Cell survival rate (%)=[(As−Ab)/(Ac−Ab)]*100% • As: Assay well (medium containing cells, CCK-8, compound), • Ac: Control well (medium containing cells, CCK-8), • Ab: Blank well (CCK-8, medium without cell and compound), • 8. The values were imported into Graphpad Prism 5 software for IC50 calculation.

The target in another assay is VEGFR-2 kinase (Homo sapiens (Human), UniProt P35968). Kind of assay: Assay of small molecular compounds for inhibiting the activity of VEGFR-2 kinase (LANCE TR-FRET). Type of assay: biochemical. As to conditions: read-out: VEGFR2 IC50. The procedure:
The assay is based on the LANCE TR-FRET technology of Perkin Elmer Inc., and the assay method is as follows: • 1. Dilution of compounds: a total of 11 concentrations were obtained using a 3-fold gradient dilution from the highest concentration of 2500 nM (the maximum final concentration of the drug used in this assay was 2500 nM, and the minimum final concentration was 0.042 nM). • 2. 2.5 μL of the gradient-diluted compounds were taken with a transfer pipette to a 384-well plate. • 3. Addition of enzyme: 5 μL of 2×VEGFR2 kinase solution (with a concentration of 0.5 nM) was taken with a transfer pipette to the corresponding reaction well of the 384-well plate, mixed well and pre-reacted at room temperature for 30 minutes. • 4. 2.5 μL 4× Ultra ULight™-JAK-1 (Tyr1023) Peptide (with a concentration of 200 nM)/ATP (with a concentration of 40 μM) mixture was taken with a transfer pipette to the corresponding reaction well of the 384-well plate. • 5. Negative control: 2.5 μL/well 4× substrate/ATP mixture and 7.5 μL 1× Kinase Assay Buffer were added to the wells of the 384-well plate. • 6. Positive control: 2.5 μL/well 4× substrate/ATP mixture, 2.5 μL/well 1× Kinase Assay Buffer containing 16% DMSO, and 5 μL/well 2×VEGFR-2 kinase solution were added to the 384-well plate. The final concentration of DMSO in the reaction system was 4%. • 7. The mixture was mixed well and then centrifuged and reacted at room temperature in dark for 60 min. • 8. Termination of the enzymatic reaction: 5 μL of 4× stop solution was taken with a transfer pipette to the wells of the 384-well plate, mixed and then centrifuged, and reacted at room temperature for 5 min. • 9. Development of the reaction: 5 μL of 4× detection solution was taken with a transfer pipette to the wells of the 384-well plate for color development, and the mixture was mixed and then centrifuged and reacted at room temperature for 60 min. • 10. The 384-well plate was placed into the Envision plate reader and the signal was detected using the appropriate program. • 11. Analysis and processing of the raw data: The drug concentrations and the corresponding inhibition rates were input into GraphPad Prism5 for calculation, and the inhibition rate of the compounds were calculated as follows: inhibition rate (%)=(reading of positive well−reading of experimental well)/(reading of positive control well−reading of negative control well)×100%. Processing with GraphPad Prism5 software yielded the corresponding IC50 values (the concentration of the compound at which 50% of the highest inhibition of the enzyme is achieved).

For another assay, the system named is Ba/F3-AXL cells. Kind of assay: Assay for inhibiting the proliferation of Ba/F3-AXL cells (CCK-8). To be noted: 72 hours of incubation, medium with 100 ng/mL hGas6, CCK-8. Type of assay: cell-based. The procedure:
The values were then imported into Graphpad Prism 5 software for curve fitting, and IC50 was calculated.

Another assay concerns the target MER kinase (Homo sapiens (Human), UniProt Q12866). Briefly: Assay of small molecular compounds for inhibiting the activity of MER kinase (LANCE TR-FRET). Format: biochemical. The procedure, abridged:
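LANCE TR-FRET readout of ULight-poly GT phosphorylation by MER kinase; compound final range 0.042-2500 nM, 3-fold steps, 5 min enzyme preincubation. Reaction 60 min at room temperature in the dark with substrate/ATP (4× at 200 nM/20 μM), 1% DMSO, then stopped and developed 60 min; IC50 by curve fit.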

Chain of TRKA kinase (P04629 33-796): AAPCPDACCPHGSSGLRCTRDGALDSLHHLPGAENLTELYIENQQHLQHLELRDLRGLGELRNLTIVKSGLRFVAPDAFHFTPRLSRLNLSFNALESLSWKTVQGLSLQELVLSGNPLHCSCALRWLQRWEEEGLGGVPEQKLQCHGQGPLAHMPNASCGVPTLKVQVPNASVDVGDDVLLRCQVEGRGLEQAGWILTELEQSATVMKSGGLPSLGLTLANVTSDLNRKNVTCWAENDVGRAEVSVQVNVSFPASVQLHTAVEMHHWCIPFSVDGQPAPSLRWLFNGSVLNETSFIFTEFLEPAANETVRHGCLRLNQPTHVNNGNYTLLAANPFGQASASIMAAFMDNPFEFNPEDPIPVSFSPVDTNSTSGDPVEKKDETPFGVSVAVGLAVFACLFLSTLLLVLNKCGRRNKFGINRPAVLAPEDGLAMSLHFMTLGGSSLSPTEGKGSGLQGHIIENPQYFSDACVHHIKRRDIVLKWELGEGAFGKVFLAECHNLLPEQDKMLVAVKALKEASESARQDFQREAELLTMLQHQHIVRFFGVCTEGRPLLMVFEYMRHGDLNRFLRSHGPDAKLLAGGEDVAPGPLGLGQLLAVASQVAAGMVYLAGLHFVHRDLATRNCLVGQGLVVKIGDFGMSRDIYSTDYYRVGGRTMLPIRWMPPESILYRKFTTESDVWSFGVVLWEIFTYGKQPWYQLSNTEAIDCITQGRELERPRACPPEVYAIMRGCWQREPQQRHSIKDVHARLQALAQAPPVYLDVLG
Chain of MER kinase (Q12866 21-999): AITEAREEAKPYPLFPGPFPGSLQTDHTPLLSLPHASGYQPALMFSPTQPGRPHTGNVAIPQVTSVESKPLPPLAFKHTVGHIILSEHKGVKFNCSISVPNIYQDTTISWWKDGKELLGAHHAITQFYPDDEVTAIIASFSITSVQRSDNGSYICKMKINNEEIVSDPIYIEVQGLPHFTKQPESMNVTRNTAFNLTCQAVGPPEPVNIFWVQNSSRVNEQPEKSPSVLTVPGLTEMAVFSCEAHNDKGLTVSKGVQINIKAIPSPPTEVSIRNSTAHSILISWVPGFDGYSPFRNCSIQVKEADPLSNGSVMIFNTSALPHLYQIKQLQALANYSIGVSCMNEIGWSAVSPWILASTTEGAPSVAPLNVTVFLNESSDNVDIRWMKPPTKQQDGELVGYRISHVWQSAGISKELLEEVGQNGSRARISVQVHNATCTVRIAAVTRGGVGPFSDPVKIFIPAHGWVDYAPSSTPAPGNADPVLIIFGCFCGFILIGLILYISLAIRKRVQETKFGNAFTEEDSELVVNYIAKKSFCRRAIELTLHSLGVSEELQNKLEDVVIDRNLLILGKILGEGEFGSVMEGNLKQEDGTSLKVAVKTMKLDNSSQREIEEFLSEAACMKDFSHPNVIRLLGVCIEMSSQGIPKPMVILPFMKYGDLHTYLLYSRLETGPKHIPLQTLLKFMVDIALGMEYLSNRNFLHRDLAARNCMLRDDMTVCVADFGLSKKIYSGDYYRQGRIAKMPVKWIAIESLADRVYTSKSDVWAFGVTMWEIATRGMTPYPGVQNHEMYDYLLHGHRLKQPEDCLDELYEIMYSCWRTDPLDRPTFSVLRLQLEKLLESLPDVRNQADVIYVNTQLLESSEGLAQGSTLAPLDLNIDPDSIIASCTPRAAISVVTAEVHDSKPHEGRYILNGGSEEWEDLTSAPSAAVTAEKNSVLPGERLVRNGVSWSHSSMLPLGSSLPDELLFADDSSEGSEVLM
Chain of c-MET kinase (P08581 25-1390): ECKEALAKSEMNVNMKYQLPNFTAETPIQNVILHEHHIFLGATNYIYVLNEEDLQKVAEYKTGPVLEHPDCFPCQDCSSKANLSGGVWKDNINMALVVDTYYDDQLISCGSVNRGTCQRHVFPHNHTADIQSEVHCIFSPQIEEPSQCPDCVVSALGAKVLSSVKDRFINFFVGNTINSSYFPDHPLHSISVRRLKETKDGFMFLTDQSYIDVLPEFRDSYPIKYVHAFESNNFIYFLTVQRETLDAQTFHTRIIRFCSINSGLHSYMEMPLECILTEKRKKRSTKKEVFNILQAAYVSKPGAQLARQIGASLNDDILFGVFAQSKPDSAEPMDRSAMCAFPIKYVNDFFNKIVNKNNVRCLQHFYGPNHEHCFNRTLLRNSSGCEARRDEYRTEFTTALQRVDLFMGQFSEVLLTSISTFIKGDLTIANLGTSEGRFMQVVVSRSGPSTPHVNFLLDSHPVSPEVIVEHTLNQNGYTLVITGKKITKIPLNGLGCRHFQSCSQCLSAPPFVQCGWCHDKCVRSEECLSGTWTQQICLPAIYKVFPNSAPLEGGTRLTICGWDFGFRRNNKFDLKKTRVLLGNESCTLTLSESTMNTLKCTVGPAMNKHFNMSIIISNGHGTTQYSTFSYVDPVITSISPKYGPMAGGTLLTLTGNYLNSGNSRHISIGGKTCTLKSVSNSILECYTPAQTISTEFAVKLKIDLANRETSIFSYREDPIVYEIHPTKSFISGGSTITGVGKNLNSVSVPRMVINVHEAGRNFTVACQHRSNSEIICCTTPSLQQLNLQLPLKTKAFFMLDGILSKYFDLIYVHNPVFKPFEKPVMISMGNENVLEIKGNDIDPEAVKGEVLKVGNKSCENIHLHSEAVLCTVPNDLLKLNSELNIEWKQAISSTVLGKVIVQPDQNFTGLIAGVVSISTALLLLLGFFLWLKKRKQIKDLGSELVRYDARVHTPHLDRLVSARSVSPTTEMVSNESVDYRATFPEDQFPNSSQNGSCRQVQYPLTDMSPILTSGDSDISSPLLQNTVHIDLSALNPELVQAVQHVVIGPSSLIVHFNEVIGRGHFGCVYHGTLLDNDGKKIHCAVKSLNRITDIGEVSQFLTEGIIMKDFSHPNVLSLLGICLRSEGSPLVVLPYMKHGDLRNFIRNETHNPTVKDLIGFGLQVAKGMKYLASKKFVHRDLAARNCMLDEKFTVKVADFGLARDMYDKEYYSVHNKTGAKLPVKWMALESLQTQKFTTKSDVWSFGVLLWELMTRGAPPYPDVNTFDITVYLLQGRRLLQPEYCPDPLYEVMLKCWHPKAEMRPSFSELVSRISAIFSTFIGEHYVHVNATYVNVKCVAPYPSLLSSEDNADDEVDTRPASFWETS
Chain of VEGFR-2 kinase (P35968 20-1356): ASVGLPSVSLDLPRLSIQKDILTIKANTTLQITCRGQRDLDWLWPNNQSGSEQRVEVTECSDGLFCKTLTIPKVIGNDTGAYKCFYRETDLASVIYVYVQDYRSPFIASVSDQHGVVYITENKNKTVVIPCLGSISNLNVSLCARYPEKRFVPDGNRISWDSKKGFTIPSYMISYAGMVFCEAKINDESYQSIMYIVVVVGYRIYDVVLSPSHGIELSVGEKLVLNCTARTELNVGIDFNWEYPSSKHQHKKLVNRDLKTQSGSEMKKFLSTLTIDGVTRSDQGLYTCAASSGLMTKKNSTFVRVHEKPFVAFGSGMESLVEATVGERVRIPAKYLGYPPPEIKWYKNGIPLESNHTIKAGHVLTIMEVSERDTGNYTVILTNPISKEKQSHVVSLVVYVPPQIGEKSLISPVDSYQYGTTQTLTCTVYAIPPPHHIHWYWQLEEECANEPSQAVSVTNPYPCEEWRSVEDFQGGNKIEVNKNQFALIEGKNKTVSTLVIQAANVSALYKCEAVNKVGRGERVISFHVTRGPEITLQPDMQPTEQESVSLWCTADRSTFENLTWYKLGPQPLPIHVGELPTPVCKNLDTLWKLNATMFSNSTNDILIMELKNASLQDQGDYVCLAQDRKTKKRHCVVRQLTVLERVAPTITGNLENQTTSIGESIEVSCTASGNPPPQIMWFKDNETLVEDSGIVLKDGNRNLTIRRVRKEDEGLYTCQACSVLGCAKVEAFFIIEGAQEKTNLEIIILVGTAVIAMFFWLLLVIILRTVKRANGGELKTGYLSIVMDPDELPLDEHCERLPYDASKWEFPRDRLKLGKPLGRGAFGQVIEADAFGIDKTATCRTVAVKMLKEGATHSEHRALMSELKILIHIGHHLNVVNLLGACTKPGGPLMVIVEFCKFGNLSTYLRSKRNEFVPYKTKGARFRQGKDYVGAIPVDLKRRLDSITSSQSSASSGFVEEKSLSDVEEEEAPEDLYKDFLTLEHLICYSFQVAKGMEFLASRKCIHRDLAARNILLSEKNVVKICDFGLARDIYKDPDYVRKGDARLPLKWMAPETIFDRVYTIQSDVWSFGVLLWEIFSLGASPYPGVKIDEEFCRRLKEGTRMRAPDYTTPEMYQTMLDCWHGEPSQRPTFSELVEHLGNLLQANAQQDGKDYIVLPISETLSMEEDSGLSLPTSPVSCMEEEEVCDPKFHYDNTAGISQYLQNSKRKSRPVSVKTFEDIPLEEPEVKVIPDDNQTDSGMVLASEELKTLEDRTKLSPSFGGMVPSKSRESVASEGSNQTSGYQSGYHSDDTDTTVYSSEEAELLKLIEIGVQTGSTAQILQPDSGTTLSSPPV

Take `COc1ccn(-c2ccc(F)cc2)c(=O)c1C(=O)Nc1ccc(Oc2ccnc3cc(OCCCN4CCOCC4)c4c(c23)OCCO4)cc1Cl` [Example 144, N-(2-chloro-4-((5-(3-morpholinopropoxy)-2,3-dihydro-[1,4]dioxino[2,3-f]quinolin-10-yl)oxy)phenyl)-1-(4-fluorophenyl)-4-methoxy-2-oxo-1,2-dihydropyridine-3-carboxamide]: the IC50 is less than 50 nM against TRKA kinase, no more than 50 nM at c-MET kinase, less than 50 nM with Ba/F3 LMNA-NTRK1 cells and 50 to 500 nM at VEGFR-2 kinase.

As to `CC(C)n1cc(C(=O)Nc2ccc(Oc3ccnc4cc(OCC#N)c5c(c34)OCCO5)c(F)c2)c(=O)n(-c2ccc(F)cc2)c1=O` [Example 81, N-(3-fluoro-4-((5-(cyanomethoxy)-2,3-dihydro-[1,4]dioxino[2,3-f]quinolin-10-yl)oxy)phenyl)-3-(4-fluorophenyl)-1-isopropyl-2,4-dioxo-1,2,3,4-tetrahydropyrimidine-5-carboxamide], the IC50 against TRKA kinase was 500 to 5000 nM; in the assay on Ba/F3-AXL cells, less than 50 nM; at c-MET kinase, 50 to 500 nM; on MER kinase it was no more than 50 nM.

On to `COc1cc2nccc(Oc3ccc(NC(=O)c4cn(C(C)C)c(=O)n(-c5cccc(F)c5)c4=O)cc3F)c2c2c1OCCO2` [Example 109, N-(3-fluoro-4-((5-methoxy-2,3-dihydro-[1,4]dioxino[2,3-f]quinolin-10-yl)oxy)phenyl)-3-(3-fluorophenyl)-1-isopropyl-2,4-dioxo-1,2,3,4-tetrahydropyrimidine-5-carboxamide], for which the concentration for half-maximal inhibition (IC50) against TRKA kinase was 500 to 5000 nM; in the assay on Ba/F3-AXL cells, less than 50 nM; on c-MET kinase, no more than 50 nM; on MER kinase, no more than 50 nM.

Consider `CCOc1cc2nccc(Oc3ccc(NC(=O)c4cn(C(C)C)c(=O)n(-c5ccc(F)cc5)c4=O)cc3F)c2c2c1OCCO2` [Example 87, N-(3-fluoro-4-((5-ethoxy-2,3-dihydro-[1,4]dioxino[2,3-f]quinolin-10-yl)oxy)phenyl)-3-(4-fluorophenyl)-1-isopropyl-2,4-dioxo-1,2,3,4-tetrahydropyrimidine-5-carboxamide], for which the IC50 was 50 to 500 nM against TRKA kinase, less than 50 nM with Ba/F3-AXL cells, 50 to 500 nM at c-MET kinase and no more than 50 nM against MER kinase.

For `COc1cc2nccc(Oc3ccc(NC(=O)c4cccn(-c5ccc(F)cc5)c4=O)c(Cl)c3)c2c2c1OCCO2` [Example 123, N-(2-chloro-4-((5-methoxy-2,3-dihydro-[1,4]dioxino[2,3-f]quinolin-10-yl)oxy)phenyl)-1-(4-fluorophenyl)-2-oxo-1,2-dihydropyridine-3-carboxamide], the IC50 on TRKA kinase was less than 50 nM; in the assay with Ba/F3-AXL cells, less than 50 nM; in the assay with Ba/F3 LMNA-NTRK1 cells, less than 50 nM; on VEGFR-2 kinase, greater than 5000 nM; against MER kinase, no more than 50 nM.

With `CC(C)n1cc(C(=O)Nc2ccc(Oc3ccnc4cc(OCCCCCCN(C)C)c5c(c34)OCCO5)c(F)c2)c(=O)n(-c2ccc(F)cc2)c1=O` [Example 85, N-(3-fluoro-4-((5-((6-dimethylamino)hexyloxy)-2,3-dihydro-[1,4]dioxino[2,3-f]quinolin-10-yl)oxy)phenyl)-3-(4-fluorophenyl)-1-isopropyl-2,4-dioxo-1,2,3,4-tetrahydropyrimidine-5-carboxamide], the 50% inhibitory concentration (IC50) is less than 50 nM in the assay on Ba/F3-AXL cells, 50 to 500 nM at c-MET kinase, less than 50 nM with Ba/F3 LMNA-NTRK1 cells and 50 to 500 nM at VEGFR-2 kinase.

For `Cc1cc(F)ccc1-n1ccc(C(=O)Nc2ccc(Oc3ccnc4cc(OCCCN5CCOCC5)c5c(c34)OCCO5)c(F)c2)n1` [Example 26, 1-(4-fluoro-2-methylphenyl)-N-(3-fluoro-4-((5-(3-morpholinopropoxy)-2,3-dihydro-[1,4]dioxino[2,3-f]quinolin-10-yl)oxy)phenyl)-1H-pyrazole-3-carboxamide], the IC50 at TRKA kinase was less than 50 nM; in the assay with Ba/F3-AXL cells, less than 50 nM; on c-MET kinase, no more than 50 nM; in the assay with Ba/F3 LMNA-NTRK1 cells, less than 50 nM; against MER kinase, 50 to 500 nM.

With `CCOc1cn(-c2ccc(F)cc2C)nc1C(=O)Nc1ccc(Oc2ccnc3cc(OCCCN4CCOCC4)c4c(c23)OCCO4)c(F)c1` [Example 28, 1-(4-fluoro-2-methylphenyl)-N-(3-fluoro-4-((5-(3-morpholinopropoxy)-2,3-dihydro-[1,4]dioxino[2,3-f]quinolin-10-yl)oxy)phenyl)-4-ethoxy-1H-pyrazole-3-carboxamide], the IC50 at TRKA kinase was less than 50 nM; in the assay with Ba/F3-AXL cells, less than 50 nM; at c-MET kinase, no more than 50 nM; in the assay on Ba/F3 LMNA-NTRK1 cells it was less than 50 nM; against MER kinase it was no more than 50 nM.

For `CC(C)n1cc(C(=O)Nc2ccc(Oc3ccnc4cc(OCCCC#N)c5c(c34)OCCO5)c(F)c2)c(=O)n(-c2ccc(F)cc2)c1=O` [Example 82, N-(3-fluoro-4-((5-(3-cyanopropoxy)-2,3-dihydro-[1,4]dioxino[2,3-f]quinolin-10-yl)oxy)phenyl)-3-(4-fluorophenyl)-1-isopropyl-2,4-dioxo-1,2,3,4-tetrahydropyrimidine-5-carboxamide], the IC50 is 50 to 500 nM on TRKA kinase, less than 50 nM in the assay with Ba/F3-AXL cells, 50 to 500 nM at c-MET kinase and no more than 50 nM against MER kinase.

As to `COc1cc2nccc(Oc3ccc(NC(=O)c4c(OC)ccn(-c5ccc(F)cc5)c4=O)c(Cl)c3)c2c2c1OCCO2` [Example 124, N-(2-chloro-4-((5-methoxy-2,3-dihydro-[1,4]dioxino[2,3-f]quinolin-10-yl)oxy)phenyl)-1-(4-fluorophenyl)-4-methoxy-2-oxo-1,2-dihydropyridine-3-carboxamide], the half-inhibitory concentration (IC50) is less than 50 nM against TRKA kinase; less than 50 nM in the assay on Ba/F3-AXL cells; less than 50 nM in the assay on Ba/F3 LMNA-NTRK1 cells; 500 to 5000 nM on VEGFR-2 kinase; no more than 50 nM on MER kinase.
